In patent US20060154889A1, “Polyfluorinated nucleoside analogs and methods of use thereof” (priority 2004, published 2006):
Like-named read-outs stand apart in the source and are kept apart here.

Legend:
(dCGCGCG)2 core duplex = test: Dangling-end thermal denaturation, sequence XCGCGCG (Table 1); format: physicochemical; conditions: for ΔΔG stacking (stability contributed): (dCGCGCG)2 core duplex; for Tm / −ΔG37 / −ΔH / −ΔS / ΔΔG stacking / ΔTm: XCGCGCG; for Tm: 1 M NaCl, 10 mM sodium phosphate pH 7.0, 5.0 μM DNA-strand; for ΔΔG stacking: difference from core duplex; for ΔTm: vs core duplex
Protocol: (§1) The dangling-end experimental method was utilized to evaluate the ability of the fluorinated aromatic base analogues to stabilize DNA duplexes when substituted directly adjacent to the helix. The relative stabilizations were measured by comparison of the energetics for helix-coil melting transition of the “core “duplex (lacking any “dangling “nucleotide) to that containing the extra nucleotide. Five short self-complementary sequence contexts were used; the sequences were chosen because they had been shown previously to be well-behaved thermodynamically in the dangling-end configuration. Data from two of the contexts are shown in Table 1, and data for the remaining three show similar trends. By use of these five contexts we were able to compare stacking effects of the base analogues with all four neighboring DNA bases in the helix. Methods for thermodynamic measurements. Thermal denaturation. […] Solutions were then heated to 90° C. for 5 minutes and annealed by slowly cooling to room temperature and then to 0° C. […] Calculations.

XAGCGCT = test: Dangling-end thermal denaturation, sequence XAGCGCT (Table 2); format: physicochemical
Protocol: (§2) The dangling-end experimental method was utilized to evaluate the ability of the fluorinated aromatic base analogues to stabilize DNA duplexes when substituted directly adjacent to the helix. The relative stabilizations were measured by comparison of the energetics for helix—coil melting transition of the “core “duplex (lacking any “dangling “nucleotide) to that containing the extra nucleotide. Five short self-complementary sequence contexts were used; the sequences were chosen because they had been shown previously to be well-behaved thermodynamically in the dangling-end configuration. Data from two of the contexts are shown in Table 1, and data for the remaining three show similar trends. By use of these five contexts we were able to compare stacking effects of the base analogues with all four neighboring DNA bases in the helix.
(§3) Methods for thermodynamic measurements. Thermal denaturation. […] Solutions were then heated to 90° C. for 5 minutes and annealed by slowly cooling to room temperature and then to 0° C.

XACAGCTGT = test: Dangling-end thermal denaturation, sequence XACAGCTGT (Table 1); format: physicochemical; conditions: for Tm: 1 M NaCl, 10 mM sodium phosphate pH 7.0, 5.0 μM DNA-strand; for ΔΔG stacking: difference from core duplex; for ΔTm: vs core duplex
Protocol: as §1

XGTAGCTAC = test: Dangling-end thermal denaturation, sequence XGTAGCTAC (Table 2); format: physicochemical
Protocol: as §2, §3

XTGAGCTCA = test: Dangling-end thermal denaturation, sequence XTGAGCTCA (Table 2); format: physicochemical
Protocol: as §2, §3

[1] = Octanol-water partitioning of free nucleosides
Protocol: We explicitly examined hydrophobicity of the four nucleosides by partitioning between 1-octanol and water.
Octanol-water partitioning. The experimental solvent partitioning studies for free nucleosides were carried out as described. Experiments were carried out in triplicate and the results averaged to increase accuracy.

5′XCGCGCG3′ = test: Dangling end stacking in 6-bp self-complementary DNA (Table S3); format: physicochemical; conditions: for ΔG°37 (Van't Hoff) / ΔG°37 (avg.) / ΔG°37 (fits) / ΔH° (van't Hoff) / ΔS° (Van't Hoff) / Tm: 5′XCGCGCG3′ dangling base; for Tm: 1 M NaCl, 10 mM phosphate buffer (pH 7.0), 0.1 mM EDTA, 5.0 μM; for stacks more favorably than parent hydrocarbon: ^FB vs B, ^FI vs I
Protocol: To seek evidence for the origins of this selectivity, we examined individual properties of the four nonpolar nucleoside analogues. Stacking was evaluated by the standard dangling end approach using a 6-bp self-complementary DNA.
Calculations. […] (Table 4 and Table 5)

[2] = average from fits to individual melting curves
[3] = 2,4,6- vs 2,4,5-substituted case

Row | Compound | Tm ((dCGCGCG)2 core duplex) | −ΔG37 ((dCGCGCG)2 core duplex; Van't Hoff plots) | −ΔH ((dCGCGCG)2 core duplex; Van't Hoff plots) | −ΔS ((dCGCGCG)2 core duplex; Van't Hoff plots) | −ΔG37 ((dCGCGCG)2 core duplex; [2]) | ΔΔG stacking ((dCGCGCG)2 core duplex) | ΔTm ((dCGCGCG)2 core duplex) | Tm (XACAGCTGT) | −ΔG37 (XACAGCTGT; Van't Hoff plots) | −ΔH (XACAGCTGT; Van't Hoff plots) | −ΔS (XACAGCTGT; Van't Hoff plots) | −ΔG37 (XACAGCTGT; [2]) | ΔΔG stacking (XACAGCTGT) | ΔTm (XACAGCTGT) | −H (XGTAGCTAC; marker c) | −S (XGTAGCTAC; marker c) | −G37 (XTGAGCTCA; marker c) | −H (XTGAGCTCA; marker c) | −S (XTGAGCTCA; marker c) | −G37 (XTGAGCTCA; marker d) | also measured
1 | OC[C@H]1O[C@@H](c2c(F)c(F)c(F)c(F)c2F)C[C@@H]1O [pentafluorophenyl, 1′,2′-dideoxy-β-1′-(pentafluorophenyl)-D-ribofuranose] | 44.2 °C | 8.5 ± 0.2 kcal | 39.1 kcal | 99 eu | 8.7 ± 0.1 kcal | 0.5 ± 0.2 | 2.9 °C | 47.3 °C | 9.3 ± 0.0 kcal | 55.2 kcal | 148 eu | 9.3 ± 0.2 kcal | 1.3 ± 0.1 | 7.0 °C | 56.5 kcal | 155 eu | 8.7 kcal | 48.6 kcal | 128 eu | 8.9 kcal | ΔΔG stacking (stability contributed) ((dCGCGCG)2 core duplex): −0.5 kcalmol^−1; G stacking (XAGCGCT): 0.9; −G37 (XAGCGCT; marker c): 7.9 kcal; −H (XAGCGCT; marker c): 45.0 kcal; −S (XAGCGCT; marker c): 120 eu
2 | OC[C@H]1O[C@@H](c2c(F)cc(F)cc2F)C[C@@H]1O [2,4,6-trifluorophenyl, 1′,2′-dideoxy-β-1′-(2,4,6-trifluorophenyl)-D-ribofuranose] | 45.3 °C | 8.4 ± 0.2 kcal | 37.3 kcal | 104 eu | 8.6 ± 0.1 kcal | 0.4 ± 0.1 | 4.0 °C | 47.8 °C | 9.3 ± 0.2 kcal | 53.6 kcal | 143 eu | 9.4 ± 0.2 kcal | 1.3 ± 0.2 | 7.9 °C | 52.5 kcal | 142 eu | 8.8 kcal | 46.7 kcal | 122 eu | 9.0 kcal | change in Tm stabilization on moving one fluorine from ortho to meta position ((dCGCGCG)2 core duplex; [3]): 6.8; change in stabilization free energy on moving one fluorine from ortho to meta position ((dCGCGCG)2 core duplex; [3]): 1.6 kcal; −G37 (XGTAGCTAC; marker c): 8.4 kcal; G stacking (XTGAGCTCA): 1.3
3 | OC[C@H]1O[C@@H](n2ccc3c(F)c(F)c(F)c(F)c32)C[C@@H]1O [^FI, 1′,2′-dideoxy-β-1′-(N-4,5,6,7-tetrafluoroindole)-D-ribofuranose] | – | – | – | – | – | – | – | – | – | – | – | – | – | – | – | – | – | – | – | – | log P [1]: 1.66 (0.10); ΔG°37 (Van't Hoff) (5′XCGCGCG3′): -11.1 ± 0.2 kcal; ΔG°37 (avg.) (5′XCGCGCG3′): -11.2 ± 0.2 kcal; ΔG°37 (fits) (5′XCGCGCG3′): -11.3 ± 0.2 kcal; ΔH° (van't Hoff) (5′XCGCGCG3′): -52.6 kcal; ΔS° (Van't Hoff) (5′XCGCGCG3′): −134 eu; Tm (5′XCGCGCG3′): 59.3 °C; stacks more favorably than parent hydrocarbon (5′XCGCGCG3′): 1.1 kcal/mol
4 | OCC1OC(c2cc(F)c(F)cc2F)CC1O (stereo not drawn) [2,4,5-trifluorophenyl] | 52.2 °C | 10.1 ± 0.3 kcal | 55.0 kcal | 145 eu | 10.0 ± 0.1 kcal | 2.0 ± 0.2 | 10.8 °C | 48.9 °C | 10.1 ± 0.2 kcal | 67.8 kcal | 186 eu | 9.7 ± 0.1 kcal | 1.9 ± 0.2 | 9.0 °C | 72.5 kcal | 204 eu | 9.2 kcal | 53.8 kcal | 144 eu | 9.1 kcal | −G37 (XGTAGCTAC; marker d): 9.1 kcal; G stacking (XTGAGCTCA): 1.5
5 | 1′,2′-dideoxy-β-1′-(N-indole)-D-ribofuranose [reference compound] | – | – | – | – | – | – | – | – | – | – | – | – | – | – | – | – | – | – | – | – | log P ([1]; free nucleoside, 1-octanol and water, triplicate): 0.99 (0.10); ΔG°37 (Van't Hoff) (5′XCGCGCG3′): -10.2 ± 0.3 kcal; ΔG°37 (avg.) (5′XCGCGCG3′): -10.0 ± 0.2 kcal; ΔG°37 (fits) (5′XCGCGCG3′): -9.9 ± 0.1 kcal; ΔH° (van't Hoff) (5′XCGCGCG3′): -60.2 kcal; ΔS° (Van't Hoff) (5′XCGCGCG3′): −161 eu; Tm (5′XCGCGCG3′): 51.6 °C
6 | OC[C@H]1OC(c2ccc(F)cc2)C[C@@H]1O (stereo partly drawn) [4-fluorophenyl, 1′-(4-fluorophenyl)-2′-deoxy-D-ribose] | 51.2 °C | 10.3 ± 0.3 kcal | 64.9 kcal | 175 eu | 9.9 ± 0.2 kcal | 2.0 ± 0.2 | 9.8 °C | 48.7 °C | 9.9 ± 0.1 kcal | 66.6 kcal | 183 eu | 9.6 ± 0.1 kcal | 1.8 ± 0.1 | 8.7 °C | – | – | – | – | – | – | –
7 | OC[C@H]1O[C@@H](c2cc(F)c(F)c(F)c2F)C[C@@H]1O [2,3,4,5-tetrafluorophenyl, 1′,2′-dideoxy-β-1′-(2,3,4,5-tetrafluorophenyl)-D-ribofuranose] | 53.9 °C | 10.3 ± 0.2 kcal | 53.8 kcal | 93 eu | 10.2 ± 0.2 kcal | 2.2 ± 0.2 | 12.6 °C | 50.9 °C | 10.7 ± 0.2 kcal | 76.3 kcal | 212 eu | 9.8 ± 0.2 kcal | 2.3 ± 0.2 | 10.0 °C | 57.0 kcal | 156 eu | 9.1 kcal | 51.9 kcal | 138 eu | 9.2 kcal | ΔΔG stacking (stability contributed) ((dCGCGCG)2 core duplex): −2.2 kcalmol^−1; G stacking (XAGCGCT): 1.4; −G37 (XAGCGCT; marker c): 8.3 kcal; −H (XAGCGCT; marker c): 48.4 kcal; −S (XAGCGCT; marker c): 129 eu; −G37 (XAGCGCT; marker d): 8.3 kcal; log P [1]: 1.39 (0.10); G stacking (XGTAGCTAC): 1.7; −G37 (XGTAGCTAC; marker c): 8.8 kcal; −G37 (XGTAGCTAC; marker d): 8.8 kcal; G stacking (XTGAGCTCA): 1.5; ΔG°37 (Van't Hoff) (5′XCGCGCG3′): -10.3 ± 0.2 kcal; ΔG°37 (avg.) (5′XCGCGCG3′): -10.2 ± 0.2 kcal; ΔG°37 (fits) (5′XCGCGCG3′): -10.2 ± 0.2 kcal; ΔH° (van't Hoff) (5′XCGCGCG3′): -53.8 kcal; ΔS° (Van't Hoff) (5′XCGCGCG3′): −93 eu; Tm (5′XCGCGCG3′): 53.9 °C; stacks more favorably than parent hydrocarbon (5′XCGCGCG3′): 1.0 kcal/mol
